According to paper PMC9393165 (Scientific Reports, 2022):
Where two headings read alike, the source gives them in different places. Marks after values point to notes of the source that are not given here.

Columns and labels:
[1] = Clinical outcomes after kidney transplantation (hypotension, DGF, BPAR, post-transplant diabetes, tremor); format: in vivo, human
Description: (§1) For calculation of AUC/D and C0/D, values of AUC and C0 were dose-adjusted by dividing the observed values by the dose recorded on the day of blood collection. Early-morning blood pressures were measured on the same day of blood collection for pharmacokinetic analysis by a ward nurse as part of a routine examination, during rest in a seated position with a calibrated and well-maintained automatic sphygmomanometer. Delayed graft function (DGF) was defined as failure of the kidney graft to function immediately, with the need for dialysis in the first 7 days post-KT. Episode of biopsy-proven acute rejection (BPAR) during 3 months post-KT was diagnosed based on histologic findings in indication kidney graft biopsy according to Banff 2015 criteria.

[2] = Tacrolimus whole blood concentration, trough and 12-h AUC after kidney transplantation (chemiluminescent microparticle immunoassay); format: in vivo, human; conditions: for C0 / AUC: human, whole blood, oral
Description: This prospective, randomized, double-blind, placebo-controlled study was carried out in four parallel groups of KTRs. […] The randomization schedule was concealed in sequentially numbered, sealed, opaque envelopes, and kept in a locked cabinet in the central pharmacy of Siriraj Hospital. Envelopes were opened sequentially only after enrollment of each participant. The diltiazem and placebo containers, which were issued with a medication number and assigned to consecutive patients in a sequential order, were tamper-proof, equal in weight, and similar in appearance. A pharmacist not involved in the care of the study patients did the randomization, distributed the study agents, and held the trial codes, which were disclosed after the study. Physicians, nurses, other care providers, and the study patients were unaware of the group allocations.
All participants received oral, immediate-release tacrolimus (Prograf®; Astellas, Kerry, Ireland). According to Siriraj Hospital protocol, the initial dose (0.05 mg/kg every 12 h) of tacrolimus was started 2 days before KT (day − 2) and subsequently adjusted after KT based on efficacy and toxicity and to maintain morning trough concentrations of 7 to 10 ng/mL in standard risk patients and 10 to 12 ng/mL in high-risk patients during the first week after transplantation. Participants also received either mycophenolate mofetil (Cellcept®; F Hoffmann-La Roche Ltd, Basel, Switzerland or Immucept®; Intas Pharmaceuticals Ltd., Gujarat, India) or mycophenolate sodium (Myfortic®; Novartis Pharma Stein, Switzerland for Novartis AG, Basel, Switzerland) at the dosage equivalent to 2 g/day of mycophenolate mofetil. A tapered corticosteroid regimen was administered consisting of an intravenous bolus of 500 mg of methylprednisolone (Solu-medrol®; Novartis Pharma Stein, Switzerland for Novartis AG, Basel, Switzerland) on day 0, 250 mg on day 1, 125 mg on day 2 followed by 40 mg/day of prednisolone on day 4 after KT. The subsequent prednisolone doses were gradually tapered thereafter. Induction therapy with basiliximab (Simulect®; Novartis Pharma AG, Basel, Switzerland) was allowed.
All patients received a fixed dose of omeprazole 40 mg/day.
[…] Samples were collected in EDTA tubes and stored at 4 degrees Celsius until analysis. Whole blood tacrolimus concentrations were determined within the same day of blood collection by using a chemiluminescent microparticle immunoassay method with […] system® i2000 (Abbott, Abbott Diagnostic, USA). The method was linear in the concentration range up to 30 ng/mL, the limits of quantification were 0.8 ng/mL, and the coefficient of variation of within run precision and between run precision were less than 10%. Mean recovery was 100 ± 10% according to the manufacturer’s information.
as §1

[3] = day 1 post-transplantation, CYP3A5 expressers, diltiazem 30 mg every 12 h (n = 11), median (IQR)
[4] = day 1 post-transplantation, CYP3A5 expressers, placebo (n = 12), median (IQR)
[5] = day 1 post-transplantation, CYP3A5 non-expressers, diltiazem 30 mg every 12 h (n = 9), median (IQR)
[6] = day 1 post-transplantation, CYP3A5 non-expressers, placebo (n = 8), median (IQR)
[7] = day 3 post-transplantation, CYP3A5 expressers, diltiazem 30 mg every 12 h (n = 11), median (IQR)
[8] = day 3 post-transplantation, CYP3A5 expressers, placebo (n = 12), median (IQR)
[9] = day 3 post-transplantation, CYP3A5 non-expressers, diltiazem 30 mg every 12 h (n = 9), median (IQR)
[10] = day 3 post-transplantation, CYP3A5 non-expressers, placebo (n = 8), median (IQR)
[11] = day 7, all 40 KTRs, median (IQR)
[12] = day 7 post-transplantation, CYP3A5 expressers, diltiazem 30 mg every 12 h (n = 11), median (IQR)
[13] = day 7 post-transplantation, CYP3A5 expressers, placebo (n = 12), median (IQR)
[14] = day 7 post-transplantation, CYP3A5 non-expressers, diltiazem 30 mg every 12 h (n = 9), median (IQR)
[15] = day 7 post-transplantation, CYP3A5 non-expressers, placebo (n = 8), median (IQR)

Tremor ([1]; during 3 months after transplantation, 40 KTRs): No study patients reported tremor
Post-transplant diabetes mellitus ([1]; during 3 months after transplantation, 40 KTRs, one in EXplb, one in EXdtz): 5%
C0/D [2, 3]: 3.3 (2.6, 4.5) ng/mL per mg
C0/Daily dose [2, 3]: 1.6 (1.3, 2.3) ng/mL per mg/day
C0/D [2, 4]: 2.2 (1.3, 2.8) ng/mL per mg
C0/Daily dose [2, 4]: 1.1 (0.6, 1.4) ng/mL per mg/day
C0/D [2, 5]: 3.8 (2.7, 7.2)^c ng/mL per mg
C0/Daily dose [2, 5]: 1.9 (1.3, 3.6)^c ng/mL per mg/day
C0/D [2, 6]: 3.8 (2.0, 5.0) ng/mL per mg
C0/Daily dose [2, 6]: 1.9 (1.0, 2.5) ng/mL per mg/day
C0/D [2, 7]: 3.7 (2.4, 4.5)^c ng/mL per mg
C0/Daily dose [2, 7]: 1.8 (1.2, 2.2)^c ng/mL per mg/day
C0/D [2, 8]: 1.8 (1.1, 2.0) ng/mL per mg
C0/Daily dose [2, 8]: 0.9 (0.6, 1.0) ng/mL per mg/day
C0/D [2, 9]: 6.4 (4.1, 8.8)^c ng/mL per mg
C0/Daily dose [2, 9]: 3.2 (2.0, 4.4)^c ng/mL per mg/day
C0/D [2, 10]: 3.4 (2.7, 5.8)^c ng/mL per mg
C0/Daily dose [2, 10]: 1.7 (1.4, 2.9)^c ng/mL per mg/day
AUC/D [2, 11]: 44.9 (37.1, 65.3) ng*h/mL per mg
C0/D [2, 11]: 2.5 (1.8, 3.7) ng/mL per mg
C0, range ([2]; day 7, all 40 KTRs, range): 5.0 to 13.2 ng/mL
AUC/D (dose-adjusted area under the 12-h curve) ([2]; day 7 post-transplantation, CYP3A5 expressers, diltiazem 30 mg every 12 h (EXdtz, n = 11), median (IQR)): 43.6 (37.0, 50.5) ng*h/mL per mg
AUC/D (dose-adjusted area under the 12-h curve) ([2]; day 7 post-transplantation, CYP3A5 expressers, diltiazem 30 mg every 12 h (EXdtz, n = 11), median (IQR), listed as tacrolimus): 43.6 ng*h/mL per mg
C0/D [2, 12]: 1.9 (1.8, 3.2) ng/mL per mg
C0/Daily dose [2, 12]: 1.0 (0.9, 1.6) ng/mL per mg/day
AUC/D (dose-adjusted area under the 12-h curve) ([2]; day 7 post-transplantation, CYP3A5 expressers, placebo (EXplb, n = 12), median (IQR)): 34.9 (31.6, 38.5) ng*h/mL per mg
AUC/D (dose-adjusted area under the 12-h curve) ([2]; day 7 post-transplantation, CYP3A5 expressers, placebo (EXplb, n = 12), median (IQR), listed as tacrolimus): 34.9 ng*h/mL per mg
C0/D [2, 13]: 2.0 (1.4, 2.5) ng/mL per mg
C0/Daily dose [2, 13]: 1.0 (0.7, 1.2) ng/mL per mg/day
AUC/D (dose-adjusted area under the 12-h curve) ([2]; day 7 post-transplantation, CYP3A5 non-expressers, diltiazem 30 mg every 12 h (NEdtz, n = 9), median (IQR)): 71.1 (54.9, 100.7)^c ng*h/mL per mg
AUC/D (dose-adjusted area under the 12-h curve) ([2]; day 7 post-transplantation, CYP3A5 non-expressers, diltiazem 30 mg every 12 h (NEdtz, n = 9), median (IQR), listed as tacrolimus): 71.1 ng*h/mL per mg
C0/D [2, 14]: 4.2 (2.8, 6.0)^c ng/mL per mg
C0/Daily dose [2, 14]: 2.1 (1.4, 3.0)^c ng/mL per mg/day
AUC/D (dose-adjusted area under the 12-h curve) ([2]; day 7 post-transplantation, CYP3A5 non-expressers, placebo (NEplb, n = 8), median (IQR)): 49.4 (43.0, 62.9)^c ng*h/mL per mg
AUC/D (dose-adjusted area under the 12-h curve) ([2]; day 7 post-transplantation, CYP3A5 non-expressers, placebo (NEplb, n = 8), median (IQR), listed as tacrolimus): 49.4 ng*h/mL per mg
C0/D [2, 15]: 2.8 (2.5, 3.4) ng/mL per mg
C0/Daily dose [2, 15]: 1.4 (1.2, 1.7) ng/mL per mg/day
C0 ([2]; 30 mg, day 1 post-transplantation, CYP3A5 expressers, diltiazem 30 mg every 12 h (n = 11), mean ± SD): 10.9 ± 3.7 ng/mL
C0 ([2]; 30 mg, day 1 post-transplantation, CYP3A5 non-expressers, diltiazem 30 mg every 12 h (n = 9), mean ± SD): 13.1 ± 7.4 ng/mL
C0 ([2]; 30 mg, day 3 post-transplantation, CYP3A5 expressers, diltiazem 30 mg every 12 h (n = 11), median (IQR)): 9.3 ng/mL
C0 ([2]; 30 mg, day 3 post-transplantation, CYP3A5 non-expressers, diltiazem 30 mg every 12 h (n = 9), median (IQR)): 11.9 ng/mL
C0 ([2]; 30 mg, day 7 post-transplantation, CYP3A5 expressers, diltiazem 30 mg every 12 h (n = 11), mean ± SD): 7.4 ± 2.1 ng/mL
AUC ([2]; 30 mg, day 7 post-transplantation, CYP3A5 expressers, diltiazem 30 mg every 12 h (n = 11), mean ± SD, read-out: AUC (area under the concentration over 12-h curve)): 138 ± 29.6 ng·h/mL
C0 ([2]; 30 mg, day 7 post-transplantation, CYP3A5 non-expressers, diltiazem 30 mg every 12 h (n = 9), mean ± SD): 8.4 ± 1.8 ng/mL
AUC ([2]; 30 mg, day 7 post-transplantation, CYP3A5 non-expressers, diltiazem 30 mg every 12 h (n = 9), mean ± SD, read-out: AUC (area under the concentration over 12-h curve)): 148 ± 25.5 ng·h/mL
C0 ([2]; day 1 post-transplantation, CYP3A5 expressers, placebo (n = 12), mean ± SD): 7 ± 3.2 ng/mL
C0 ([2]; day 1 post-transplantation, CYP3A5 non-expressers, placebo (n = 8), mean ± SD): 12.6 ± 7.2 ng/mL
C0 [2, 8]: 6.2 ng/mL
C0 [2, 10]: 9.4 ng/mL
C0 ([2]; day 7, all 40 KTRs, mean ± SD): 8.4 ± 2.1 ng/mL
AUC ([2]; day 7, all 40 KTRs, mean ± SD, read-out: AUC): 154 ± 33.2 ng·h/mL
AUC ([2]; day 7, all 40 KTRs, range, read-out: AUC, range): 96.9 to 233 ng·h/mL
C0 ([2]; day 7 post-transplantation, CYP3A5 expressers, placebo (n = 12), mean ± SD): 9.2 ± 1.6 ng/mL
AUC ([2]; day 7 post-transplantation, CYP3A5 expressers, placebo (n = 12), mean ± SD, read-out: AUC (area under the concentration over 12-h curve)): 169 ± 32.2 ng·h/mL
C0 ([2]; day 7 post-transplantation, CYP3A5 non-expressers, placebo (n = 8), mean ± SD): 8.6 ± 2.5 ng/mL
AUC ([2]; day 7 post-transplantation, CYP3A5 non-expressers, placebo (n = 8), mean ± SD, read-out: AUC (area under the concentration over 12-h curve)): 159 ± 40.7 ng·h/mL
SMILES: C=CC[C@@H]1/C=C(\C)C[C@H](C)C[C@H](OC)[C@H]2O[C@@](O)(C(=O)C(=O)N3CCCC[C@H]3C(=O)O[C@H](/C(C)=C/[C@@H]3CC[C@@H](O)[C@H](OC)C3)[C@H](C)[C@@H](O)CC1=O)[C@H](C)C[C@@H]2OC [Tacrolimus]
Biopsy-proven acute rejection (BPAR) ([1]; during 3 months after transplantation, 40 KTRs on tacrolimus-based regimen, one in EXdtz, one in NEplb): 5%
DGF, suspected rejection, or BPAR ([1]; first week post-KT, 40 KTRs on tacrolimus-based regimen): None
